What was measured:
[1] = tested on: HepG2; experiment: Anti-hepatoma activity against human HepG2 cells assessed as cell growth inhibition by MTT assay; assay type: functional, cell-based
[2] = tested on: Hep 3B2; experiment: Anti-hepatoma activity against human Hep3B cells assessed as cell growth inhibition by MTT assay; assay type: functional, cell-based
[3] = tested on: Hep 3B2; experiment: Induction of autophagy in human Hep3B cells by MDC staining based flow cytometry analysis (Rvb =3.52%); assay type: functional
[4] = tested on: HepG2; experiment: Induction of autophagy in human HepG2 cells by MDC staining based flow cytometry analysis (Rvb =4.46%); assay type: functional

| SMILES | IC50 [1] | IC50 [2] | Activity [3] | Activity [4] |
| --- | --- | --- | --- | --- |
| CNC(=O)c1cc(Oc2ccc(NC(=O)Nc3ccc(Cl)c(C(F)(F)F)c3)cc2)ccn1 [SORAFENIB] | 9.75 µM | 5.2 µM | 7.29% | 4.1% |
| C/C=C(/C)C(=O)O[C@H]1CC2=C[C@@H](C/C(C)=C/[C@H]3OC(=O)C(CO)=C13)OC2=O | > 20 µM | > 20 µM |  |  |
| C=C(C)C(=O)O[C@H]1CC2=C[C@H](C/C(C)=C/[C@H]3OC(=O)[C@@H](C)C13)OC2=O (stereo partly drawn) | > 20 µM | > 20 µM |  |  |

Continued, in another order:

| IC50 [1] | SMILES | IC50 [2] | Activity [3] | Activity [4] |
| --- | --- | --- | --- | --- |
| 8.59 µM | C=C(C)C(=O)O[C@H]1CC2=C[C@H](CC(=C)[C@@H](O)[C@H]3OC(=O)C(=C)[C@@H]31)OC2=O | 8.79 µM |  |  |
| 8.35 µM | C=C1C(=O)O[C@H]2[C@H]1[C@@H](OC(=O)/C(C)=C\C)CC1=C[C@H](CC(=C)[C@H]2O)OC1=O | 8.16 µM |  |  |
| 10.6 µM | C=C1C(=O)O[C@@H]2/C=C(\C)C[C@H]3C=C(C[C@H](OC(=O)C(C)C)[C@@H]12)C(=O)O3 | 8.63 µM |  |  |
| 2.97 µM | C=C1C(=O)O[C@H]2[C@H]1[C@@H](OC(=O)/C(C)=C\C)CC1=C[C@H](C[C@@]3(C)O[C@@H]23)OC1=O | 7.14 µM |  |  |
| > 20 µM | C/C=C(\C)C(=O)O[C@H]1CC2=C[C@@H](C/C(C)=C/[C@H]3OC(=O)C(CO)=C13)OC2=O | > 20 µM |  |  |

Reference: ChEMBL document CHEMBL4765305, “Elephantopinolide A-P, germacrane-type sesquiterpene lactones from Elephantopus scaber induce apoptosis, autophagy and G2/M phase arrest in hepatocellular carcinoma cells” (Eur J Med Chem, 2020)
